From ChEMBL document CHEMBL5543140 (J Med Chem, 2024)
pKi: −log10 of the molar value. Active and inactive are the calls of the source. The calls are words filed in the database; no cut-off is given here.

Columns and labels:
[1] = target: T1, 5-hydroxytryptamine receptor 2A (Homo sapiens, UniProt P28223); test: Displacement of [3H]LSD from human 5-HT2A receptor expressed in HEK293 cell membrane incubated for 90 mins by microbeta liquid scintillation counting method; type: cell membranes
[2] = target: T2, 5-hydroxytryptamine receptor 2C (Homo sapiens, UniProt P28335); test: Displacement of [3H]LSD from human 5-HT2C receptor expressed in HEK293 cell membrane incubated for 90 mins by microbeta liquid scintillation counting method; type: cell membranes
T2 sequence (P28335 whole entry): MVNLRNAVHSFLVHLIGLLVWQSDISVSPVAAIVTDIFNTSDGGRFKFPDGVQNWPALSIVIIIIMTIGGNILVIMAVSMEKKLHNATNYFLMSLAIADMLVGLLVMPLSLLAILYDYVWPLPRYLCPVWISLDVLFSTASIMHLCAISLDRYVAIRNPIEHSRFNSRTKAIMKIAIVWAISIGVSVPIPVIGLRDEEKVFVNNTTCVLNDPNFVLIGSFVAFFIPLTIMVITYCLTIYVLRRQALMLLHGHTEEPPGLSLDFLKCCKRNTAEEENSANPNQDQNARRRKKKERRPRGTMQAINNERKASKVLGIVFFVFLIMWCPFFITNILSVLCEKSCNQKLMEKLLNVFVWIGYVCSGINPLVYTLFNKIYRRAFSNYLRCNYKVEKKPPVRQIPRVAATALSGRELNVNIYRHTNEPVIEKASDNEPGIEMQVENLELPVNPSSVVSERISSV

[3] = target: T1, 5-hydroxytryptamine receptor 2A; test: Agonist activity at human 5-HT2A receptor expressed in HEK293 cells assessed as maximal IP2 production measured after 30 mins incubation by HTRF assay relative to control; type: functional, cell-based; conditions: filed as agonist
Homo sapiens = organism: Homo sapiens; test: Selectivity ratio, ratio of Ki for human 5-HT2B receptor to human 5-HT2C receptor
[4] = target: 5-hydroxytryptamine receptor 1A (Homo sapiens, UniProt P08908); test: Displacement of [3H]-8-OH-DPAT from 5-HT1A receptor (unknown origin) assessed as inhibition binding
[5] = target: 5-hydroxytryptamine receptor 5A (Homo sapiens) (UniProt P47898); test: Binding affinity to human 5-HT5A receptor (unknown origin) at 10 uM by radioligand displacement assay
5-hydroxytryptamine receptor 5A (Homo sapiens), sequence (P47898 whole entry): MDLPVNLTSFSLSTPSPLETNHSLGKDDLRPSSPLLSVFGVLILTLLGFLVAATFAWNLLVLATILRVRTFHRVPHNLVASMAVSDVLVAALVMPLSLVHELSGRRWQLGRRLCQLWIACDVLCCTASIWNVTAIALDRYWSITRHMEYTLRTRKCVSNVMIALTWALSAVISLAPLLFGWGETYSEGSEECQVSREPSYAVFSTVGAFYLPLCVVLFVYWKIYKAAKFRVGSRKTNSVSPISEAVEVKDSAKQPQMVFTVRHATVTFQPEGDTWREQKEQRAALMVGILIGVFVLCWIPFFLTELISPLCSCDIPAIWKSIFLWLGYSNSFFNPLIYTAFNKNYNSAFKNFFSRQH

[6] = target: T3, 5-hydroxytryptamine receptor 1A (Homo sapiens) (UniProt P08908); test: Agonist activity at human 5-HT1A receptor expressed in HEK293T cells co-transfected with 22F-Glosensor assessed as maximal inhibition of cAMP production measured after 30 mins incubation by Microbeta2Micro-plate counter analysis relative to control; type: functional, cell-based; conditions: filed as agonist
T3 sequence (whole entry): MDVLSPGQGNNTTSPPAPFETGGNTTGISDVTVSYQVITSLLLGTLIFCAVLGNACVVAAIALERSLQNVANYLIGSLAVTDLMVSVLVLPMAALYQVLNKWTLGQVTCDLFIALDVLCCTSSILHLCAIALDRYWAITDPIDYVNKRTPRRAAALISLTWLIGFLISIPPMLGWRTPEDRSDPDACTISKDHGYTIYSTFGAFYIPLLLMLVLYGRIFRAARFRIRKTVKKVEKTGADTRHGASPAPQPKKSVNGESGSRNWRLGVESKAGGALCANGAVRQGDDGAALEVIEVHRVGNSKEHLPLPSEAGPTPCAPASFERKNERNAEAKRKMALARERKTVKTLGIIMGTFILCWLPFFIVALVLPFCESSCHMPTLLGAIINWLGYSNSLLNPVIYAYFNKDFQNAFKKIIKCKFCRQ

[7] = target: Alpha-2B adrenergic receptor (Homo sapiens, UniProt P18089); test: biochemical; type: cell-based, CHO-K1
Alpha-2B adrenergic receptor, sequence (P18089 whole entry): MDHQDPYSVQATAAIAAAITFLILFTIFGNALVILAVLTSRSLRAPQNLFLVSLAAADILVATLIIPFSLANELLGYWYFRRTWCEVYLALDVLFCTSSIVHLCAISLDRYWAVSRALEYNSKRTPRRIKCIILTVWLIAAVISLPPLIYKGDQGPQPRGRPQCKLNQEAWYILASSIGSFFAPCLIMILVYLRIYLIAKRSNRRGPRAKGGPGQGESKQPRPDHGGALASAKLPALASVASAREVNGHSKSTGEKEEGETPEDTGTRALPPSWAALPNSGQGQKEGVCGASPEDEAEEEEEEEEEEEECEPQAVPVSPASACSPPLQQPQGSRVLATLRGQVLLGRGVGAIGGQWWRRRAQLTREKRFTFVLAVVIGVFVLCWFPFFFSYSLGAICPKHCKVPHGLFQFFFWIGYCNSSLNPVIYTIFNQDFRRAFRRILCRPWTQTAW

[8] = Cmax in mouse C57BL/6J brain at 3 mg/kg, sc measured after 2 hrs; type: ADME, organism-based
Mus musculus [9] = test: Locomotor activity in C57BL/6J mouse assessed as distance traveled at 1 mg/kg, po measured for 15 to 25 mins (reference value: 1710 +/- 120 cm) by Ethovision tracking system; type: functional; conditions: time 15-25 min
Mus musculus [10] = test: Locomotor activity in C57BL/6J mouse assessed as distance traveled at 3 mg/kg, po measured for 15 to 25 mins (reference value: 1710 +/- 120 cm) by Ethovision tracking system; type: functional; conditions: time 15-25 min
Mus musculus [11] = test: Locomotor activity in C57BL/6J mouse assessed as distance traveled at 10 mg/kg, po measured for 15 to 25 mins (reference value: 1710 +/- 120 cm) by Ethovision tracking system; type: functional; conditions: time 15-25 min
Mus musculus [12] = test: Psychedelic effect in C57BL/6J mouse assessed as head-twitch responses reversibility by visual observation at 3 mg/kg, sc once a day for 3 days following treatment free for 48 hrs followed by redosed at 3 mg/kg, sc; type: functional, organism-based; conditions: time 3.0 day
[13] = Ex vivo binding in C57BL/6J mouse brain frontal cortex assessed as specific binding [3H]Cimbi-36 at 1 mg/kg, sc measured after 100 mins by liquid scintillation counting analysis (reference value: 1092 +/- 53); type: functional; conditions: 1.667 h
[14] = Ex vivo binding in C57BL/6J mouse brain frontal cortex assessed as specific binding [3H]Cimbi-36 at 1 mg/kg, sc measured after 300 mins by liquid scintillation counting analysis (reference value: 1092 +/- 53); type: functional; conditions: 5 h
Hippocampus [15] = test: Induction of neuroplasticity in C57BL/6J mouse assessed as increase in PSD-95 mRNA expression in brain hippocampus at 3 mg/kg, sc single dose by RT-PCR analysis; type: functional, organism-based
Hippocampus [16] = test: Induction of neuroplasticity in C57BL/6J mouse assessed as increase in BDNF mRNA expression in brain hippocampus at 0.3 mg/kg, sc single dose by RT-PCR analysis; type: functional, organism-based
Hippocampus [17] = test: Induction of neuroplasticity in C57BL/6J mouse assessed as increase in PSD-95 mRNA expression in brain hippocampus at 0.3 mg/kg, sc single dose by RT-PCR analysis; type: functional, organism-based
[18] = Metabolic stability in human liver S9 fractions assessed as half life; type: ADME, subcellular; conditions: liver S9 fraction
[19] = Metabolic stability in mouse liver S9 fractions assessed as half life; type: ADME, subcellular; conditions: liver S9 fraction
[20] = Metabolic stability in dog liver S9 fractions assessed as half life; type: ADME, subcellular, Canis lupus familiaris; conditions: liver S9 fraction
[21] = Drug metabolism in rat hepatocytes assessed as formation of sulfoxide metabolites at 10 uM by HRAMS analysis; type: ADME, cell-based, Hepatocyte
[22] = Half life in Wistar rat plasma at 1 mg/kg, iv measured upto 48 hrs; type: ADME, organism-based
[23] = Cmax in Wistar rat plasma at 5 mg/kg, po measured upto 48 hrs; type: ADME, organism-based
[24] = MRTlast in Wistar rat plasma at 5 mg/kg, po measured upto 48 hrs; type: ADME, organism-based
[25] = MRTlast in Wistar rat brain at 1 mg/kg, iv measured upto 48 hrs; type: ADME, organism-based
[26] = Unbound concentration in male Sprague-Dawley rat brain homogenate at 1 mg/kg, iv measured upto 8 hrs by LC-MS/MS analysis; type: ADME, organism-based
[27] = Volume of distribution at steady state in beagle dog at 0.4 mg/kg, iv measured upto 24 hrs; type: ADME, organism-based, Canis lupus familiaris; conditions: in vivo, read-out: Vdss
[28] = Renal clearance in beagle dog at 0.4 mg/kg, iv measured upto 24 hrs; type: ADME, organism-based, Canis lupus familiaris; conditions: in vivo

T1 sequence (P28223 whole entry): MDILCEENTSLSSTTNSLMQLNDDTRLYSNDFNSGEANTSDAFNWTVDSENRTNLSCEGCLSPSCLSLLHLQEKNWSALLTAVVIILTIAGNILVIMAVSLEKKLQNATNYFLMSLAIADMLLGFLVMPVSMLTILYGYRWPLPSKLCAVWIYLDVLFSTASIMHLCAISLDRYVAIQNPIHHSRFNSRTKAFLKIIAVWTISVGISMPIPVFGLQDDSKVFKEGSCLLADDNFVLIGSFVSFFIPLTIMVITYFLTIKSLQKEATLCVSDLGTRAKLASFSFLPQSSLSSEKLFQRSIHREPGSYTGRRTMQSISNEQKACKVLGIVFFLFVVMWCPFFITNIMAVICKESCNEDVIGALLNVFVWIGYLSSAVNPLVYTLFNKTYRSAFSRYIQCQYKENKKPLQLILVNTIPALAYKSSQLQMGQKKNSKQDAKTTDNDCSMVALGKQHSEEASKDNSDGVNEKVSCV

With COc1cc([Se]C(F)(F)F)c(OC)cc1CCN.Cl as the compound, how does the pKi ([1]; read-out: Ki) read?
The pKi was 8.49.

And the Ki ([1]; read-out: pKi (converted))?
Its Ki is 3.02 nM.

What about the pKi [2] of the same compound?
The pKi was 7.02.

What about the Emax [3] of the same compound?
The Emax was 87%.

What about the Ratio Ki (Homo sapiens) of the same compound?
The Ratio Ki was 12.

What about the pKi [4] of the same compound?
Its pKi is 7.49.

And the Activity [5]?
Its Activity is “inactive”.

What about the Emax [6] of the same compound?
The Emax was 92%.

And the pKi [7]?
The pKi was 5.98.

And the Cmax [8]?
The Cmax was 3160 ng/g.

What about the Activity (Mus musculus [9]) of the same compound?
The Activity was 2602 cm.

And the Activity (Mus musculus [10])?
The Activity was 3008 cm.

And the Activity (Mus musculus [11])?
The Activity was 1974 cm.

And the Activity (Mus musculus [12])?
The Activity was “Active”.

What about the Activity [13] of the same compound?
The Activity was 820.

And the Activity [14]?
Its Activity is 857.

What about the Activity (Hippocampus [15]) of the same compound?
Its Activity is “inactive”.

And the Activity (Hippocampus [16])?
Its Activity is “inactive”.

What about the Activity (Hippocampus [17]) of the same compound?
The Activity was “inactive”.

And the half-life [18]?
The half-life was > 2 h.

What about the half-life [19] of the same compound?
The half-life was > 2 h.

What about the half-life [20] of the same compound?
The half-life was > 2 h.

What about the Drug metabolism [21] of the same compound?
Its Drug metabolism is “Metabolite_Detected”.

And the half-life [22]?
The half-life was 0.78 h.

What about the Cmax [23] of the same compound?
The Cmax was 18.6 ng/mL.

And the MRT last at 48 h [24]?
Its MRT last at 48 h is 2.25 h.

What about the MRT last at 48 h [25] of the same compound?
Its MRT last at 48 h is 2.54 h.

And the fraction unbound at 8 h [26]?
Its fraction unbound at 8 h is 0.014.

And the Vd [27]?
Its Vd is 5.29 L/kg.

And the CL renal at 24 h [28]?
Its CL renal at 24 h is 0.6 mL/min/kg.
